Here are results for 2 compounds from ChEMBL document CHEMBL5696442, “Discovery of type II inhibitors of TGFβ-activated kinase 1 (TAK1) and mitogen-activated protein kinase kinase kinase kinase 2 (MAP4K2)” (J Med Chem, 2015).

Test [1] concerns the target Ribosomal protein S6 kinase alpha-3 (Homo sapiens) (UniProt P51812). Description: Inhibition of RSK2 domain2 ACT labeling site in human Huh-7 cell lysate at 1 uM by KiNativ Profiling analysis relative to control. It is filed as subcellular.
Test [2] addresses Cyclin-dependent kinase 9 (Homo sapiens) (UniProt P50750). Description: Inhibition of CDK9 Lys2 labeling site in human Huh-7 cells at 1 uM by KiNativ Profiling analysis relative to control. It is filed as cell-based.
Test [3] concerns the target 5'-AMP-activated protein kinase catalytic subunit alpha-2 (Homo sapiens) (UniProt P54646). Nature of the test: Inhibition of AMPKa2 Lys2 labeling site in human Huh-7 cell lysate at 1 uM by KiNativ Profiling analysis relative to control. It counts as subcellular.
Test [4] addresses T1, Serine/threonine-protein kinase Nek9 (Homo sapiens) (UniProt Q8TD19).
T1 sequence (whole entry): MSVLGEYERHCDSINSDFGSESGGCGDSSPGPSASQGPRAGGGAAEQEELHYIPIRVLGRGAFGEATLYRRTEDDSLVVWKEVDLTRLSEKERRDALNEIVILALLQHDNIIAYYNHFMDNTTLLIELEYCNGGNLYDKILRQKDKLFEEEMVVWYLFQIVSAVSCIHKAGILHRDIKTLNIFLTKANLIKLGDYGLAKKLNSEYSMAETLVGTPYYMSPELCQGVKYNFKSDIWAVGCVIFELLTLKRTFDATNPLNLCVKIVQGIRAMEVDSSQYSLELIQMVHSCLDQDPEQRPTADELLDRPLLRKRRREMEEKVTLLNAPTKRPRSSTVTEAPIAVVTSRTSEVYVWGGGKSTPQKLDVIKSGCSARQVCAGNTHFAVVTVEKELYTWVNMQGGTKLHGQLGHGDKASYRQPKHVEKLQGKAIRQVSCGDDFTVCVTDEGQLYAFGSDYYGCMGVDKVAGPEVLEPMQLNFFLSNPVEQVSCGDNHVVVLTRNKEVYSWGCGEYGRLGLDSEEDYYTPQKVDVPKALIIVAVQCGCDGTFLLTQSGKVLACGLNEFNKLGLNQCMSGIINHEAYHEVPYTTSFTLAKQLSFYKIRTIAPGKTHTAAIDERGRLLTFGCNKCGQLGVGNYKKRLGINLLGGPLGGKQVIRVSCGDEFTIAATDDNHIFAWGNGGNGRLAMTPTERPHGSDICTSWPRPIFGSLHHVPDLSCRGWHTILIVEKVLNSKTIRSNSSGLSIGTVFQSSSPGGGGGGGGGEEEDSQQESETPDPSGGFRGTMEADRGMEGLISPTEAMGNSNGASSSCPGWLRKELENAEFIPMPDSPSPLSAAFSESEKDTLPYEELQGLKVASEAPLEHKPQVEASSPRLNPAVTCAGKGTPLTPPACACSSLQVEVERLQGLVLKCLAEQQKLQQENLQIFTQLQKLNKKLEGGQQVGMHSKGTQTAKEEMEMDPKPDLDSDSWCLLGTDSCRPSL
Description: Inhibition of NEK9 Lys2 labeling site in human Huh-7 cell lysate at 1 uM by KiNativ Profiling analysis relative to control. It is filed as subcellular.

For test [5], the target named is Microtubule-associated serine/threonine-protein kinase 3 (Homo sapiens) (UniProt O60307). Nature of the test: Inhibition of MAST3 Lys2 labeling site in human Huh-7 cells at 1 uM by KiNativ Profiling analysis relative to control. It counts as cell-based.
Sequence of Microtubule-associated serine/threonine-protein kinase 3 (Homo sapiens) (O60307 whole entry): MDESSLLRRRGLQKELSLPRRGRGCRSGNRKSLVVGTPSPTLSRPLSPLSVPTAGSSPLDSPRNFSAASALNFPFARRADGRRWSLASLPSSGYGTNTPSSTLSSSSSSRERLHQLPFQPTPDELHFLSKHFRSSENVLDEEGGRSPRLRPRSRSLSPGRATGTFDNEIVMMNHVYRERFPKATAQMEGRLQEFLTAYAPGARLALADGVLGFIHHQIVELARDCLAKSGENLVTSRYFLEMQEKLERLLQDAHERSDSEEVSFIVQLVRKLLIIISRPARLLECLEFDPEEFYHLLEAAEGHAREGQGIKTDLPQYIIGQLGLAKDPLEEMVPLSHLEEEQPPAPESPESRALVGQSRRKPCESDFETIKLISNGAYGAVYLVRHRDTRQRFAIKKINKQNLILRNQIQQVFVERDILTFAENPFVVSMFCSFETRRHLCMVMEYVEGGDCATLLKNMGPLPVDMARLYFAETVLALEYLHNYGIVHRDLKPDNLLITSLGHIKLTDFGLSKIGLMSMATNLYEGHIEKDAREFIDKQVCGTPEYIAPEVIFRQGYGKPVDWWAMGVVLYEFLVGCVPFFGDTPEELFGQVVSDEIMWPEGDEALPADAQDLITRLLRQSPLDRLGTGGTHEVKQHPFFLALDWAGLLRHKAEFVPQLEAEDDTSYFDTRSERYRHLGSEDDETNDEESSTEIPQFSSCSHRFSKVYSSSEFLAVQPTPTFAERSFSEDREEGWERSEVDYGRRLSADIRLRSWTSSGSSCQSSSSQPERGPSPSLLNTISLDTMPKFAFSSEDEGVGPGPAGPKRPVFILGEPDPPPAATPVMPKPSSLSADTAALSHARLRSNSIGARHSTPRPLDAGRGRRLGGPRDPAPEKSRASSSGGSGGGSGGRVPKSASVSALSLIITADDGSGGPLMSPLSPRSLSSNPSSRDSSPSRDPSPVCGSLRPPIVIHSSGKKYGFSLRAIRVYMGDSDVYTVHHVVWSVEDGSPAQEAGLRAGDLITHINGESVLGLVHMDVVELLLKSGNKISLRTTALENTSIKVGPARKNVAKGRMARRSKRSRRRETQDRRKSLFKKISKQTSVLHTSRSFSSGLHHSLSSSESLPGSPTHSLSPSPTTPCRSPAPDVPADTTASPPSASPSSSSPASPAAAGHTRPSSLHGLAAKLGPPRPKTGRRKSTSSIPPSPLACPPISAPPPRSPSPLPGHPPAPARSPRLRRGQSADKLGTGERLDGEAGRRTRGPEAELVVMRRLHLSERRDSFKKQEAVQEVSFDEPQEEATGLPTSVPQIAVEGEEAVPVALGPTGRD
Test [6] deals with T2, Serine/threonine-protein kinase Nek1 (Homo sapiens) (UniProt Q96PY6).
T2 sequence (whole entry): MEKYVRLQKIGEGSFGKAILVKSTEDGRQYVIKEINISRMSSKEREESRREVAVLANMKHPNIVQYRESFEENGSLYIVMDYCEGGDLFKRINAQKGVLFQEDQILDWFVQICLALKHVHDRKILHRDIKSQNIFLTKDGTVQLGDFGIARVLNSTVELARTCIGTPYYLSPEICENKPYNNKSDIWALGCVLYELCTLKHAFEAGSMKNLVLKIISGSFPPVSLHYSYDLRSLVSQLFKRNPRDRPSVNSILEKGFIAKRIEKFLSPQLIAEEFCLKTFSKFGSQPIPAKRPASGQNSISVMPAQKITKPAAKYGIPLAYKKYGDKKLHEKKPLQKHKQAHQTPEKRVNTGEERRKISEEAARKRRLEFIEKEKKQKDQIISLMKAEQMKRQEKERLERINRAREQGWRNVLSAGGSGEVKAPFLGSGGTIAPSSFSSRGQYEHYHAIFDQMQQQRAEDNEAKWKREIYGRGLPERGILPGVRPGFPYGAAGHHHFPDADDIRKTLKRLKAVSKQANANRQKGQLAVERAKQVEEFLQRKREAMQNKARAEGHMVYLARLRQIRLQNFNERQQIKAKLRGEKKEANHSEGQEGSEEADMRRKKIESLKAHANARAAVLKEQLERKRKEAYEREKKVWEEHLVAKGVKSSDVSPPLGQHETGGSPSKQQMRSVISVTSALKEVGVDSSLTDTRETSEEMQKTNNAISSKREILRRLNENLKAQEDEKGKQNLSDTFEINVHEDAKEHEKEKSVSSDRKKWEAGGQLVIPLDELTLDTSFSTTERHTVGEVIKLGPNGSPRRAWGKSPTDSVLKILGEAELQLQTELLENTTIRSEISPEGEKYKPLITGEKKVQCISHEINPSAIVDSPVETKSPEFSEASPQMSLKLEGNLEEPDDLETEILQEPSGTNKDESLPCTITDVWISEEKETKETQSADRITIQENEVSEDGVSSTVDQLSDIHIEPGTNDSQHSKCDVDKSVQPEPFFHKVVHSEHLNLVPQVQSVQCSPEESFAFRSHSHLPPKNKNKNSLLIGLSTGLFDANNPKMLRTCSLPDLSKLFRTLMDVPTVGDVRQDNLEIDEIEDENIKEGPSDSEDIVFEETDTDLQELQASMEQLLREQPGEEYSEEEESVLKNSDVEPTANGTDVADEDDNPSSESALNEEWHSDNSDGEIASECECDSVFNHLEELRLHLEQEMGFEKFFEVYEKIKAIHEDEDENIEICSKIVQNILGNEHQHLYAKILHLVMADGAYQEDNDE
Description: Inhibition of NEK1 Lys2 labeling site in human A-375 cells at 5 uM by KiNativ Profiling analysis relative to control. It is filed as cell-based.

Test [7] has as its target Myosin light chain kinase (Homo sapiens) (UniProt Q32MK0). Description: Inhibition of MLCK (unknown origin) at 10 uM by Ambit Kinomescan binding assay.
Test [8] addresses Tyrosine-protein kinase Fgr (Homo sapiens) (UniProt P09769). Nature of the test: Inhibition of FGR (unknown origin) at 10 uM by Ambit Kinomescan binding assay relative to control.
Test [9] has as its target Cyclin-dependent kinase 17 (Homo sapiens) (UniProt Q00537). Nature of the test: Inhibition of PCTAIRE2 K2 labeling site in human Huh-7 cells at 1 uM by KiNativ Profiling analysis relative to control. It counts as cell-based.
Test [10] is described as follows: Inhibition of NEK6/7 K2 labeling site harbouring DIKPANVFITATGVVK in human Huh-7 cells at 10 uM by KiNativ Profiling analysis relative to control. The conditions noted are these: condition cancer.

Active and inactive are the calls of the source. The calls are words filed in the database; no cut-off is given here.

Sequence of Myosin light chain kinase (Homo sapiens) (Q32MK0 whole entry): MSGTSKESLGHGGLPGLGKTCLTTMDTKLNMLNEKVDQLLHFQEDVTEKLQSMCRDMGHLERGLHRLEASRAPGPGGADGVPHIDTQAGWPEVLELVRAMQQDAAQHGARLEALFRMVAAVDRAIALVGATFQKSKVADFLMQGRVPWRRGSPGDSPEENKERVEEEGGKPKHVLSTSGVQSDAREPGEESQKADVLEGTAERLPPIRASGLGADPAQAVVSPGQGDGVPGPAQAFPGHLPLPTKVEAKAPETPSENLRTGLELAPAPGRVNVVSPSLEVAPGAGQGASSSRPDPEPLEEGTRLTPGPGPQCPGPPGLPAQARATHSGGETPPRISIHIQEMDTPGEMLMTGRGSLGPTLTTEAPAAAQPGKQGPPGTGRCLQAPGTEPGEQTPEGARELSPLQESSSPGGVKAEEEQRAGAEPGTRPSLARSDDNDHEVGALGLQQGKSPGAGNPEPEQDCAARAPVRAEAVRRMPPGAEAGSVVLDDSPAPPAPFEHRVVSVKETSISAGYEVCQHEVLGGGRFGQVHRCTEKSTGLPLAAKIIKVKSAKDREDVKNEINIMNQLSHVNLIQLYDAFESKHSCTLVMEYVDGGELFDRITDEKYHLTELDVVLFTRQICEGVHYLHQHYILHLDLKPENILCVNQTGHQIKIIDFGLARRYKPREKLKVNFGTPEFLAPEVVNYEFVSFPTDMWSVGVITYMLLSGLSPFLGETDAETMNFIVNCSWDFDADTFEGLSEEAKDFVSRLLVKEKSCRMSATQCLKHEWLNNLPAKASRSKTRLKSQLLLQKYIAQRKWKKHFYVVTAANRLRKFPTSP
Sequence of Tyrosine-protein kinase Fgr (Homo sapiens) (P09769 2-529 limits assumed): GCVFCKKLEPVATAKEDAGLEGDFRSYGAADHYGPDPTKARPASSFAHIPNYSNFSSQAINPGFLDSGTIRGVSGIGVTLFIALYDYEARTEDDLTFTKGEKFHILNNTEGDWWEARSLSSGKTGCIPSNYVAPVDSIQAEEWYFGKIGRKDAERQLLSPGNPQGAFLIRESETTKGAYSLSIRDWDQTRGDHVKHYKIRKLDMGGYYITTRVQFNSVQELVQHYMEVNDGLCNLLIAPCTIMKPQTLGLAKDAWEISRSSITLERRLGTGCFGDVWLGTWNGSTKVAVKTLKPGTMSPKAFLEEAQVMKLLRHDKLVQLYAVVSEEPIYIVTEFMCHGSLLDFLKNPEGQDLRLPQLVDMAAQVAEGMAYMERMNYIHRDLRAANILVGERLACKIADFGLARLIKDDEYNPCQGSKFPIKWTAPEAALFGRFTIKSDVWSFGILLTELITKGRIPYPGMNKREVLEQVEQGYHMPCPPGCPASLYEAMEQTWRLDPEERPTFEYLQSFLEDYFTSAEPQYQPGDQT
Sequence of 5'-AMP-activated protein kinase catalytic subunit alpha-2 (Homo sapiens) (P54646 whole entry, looked up): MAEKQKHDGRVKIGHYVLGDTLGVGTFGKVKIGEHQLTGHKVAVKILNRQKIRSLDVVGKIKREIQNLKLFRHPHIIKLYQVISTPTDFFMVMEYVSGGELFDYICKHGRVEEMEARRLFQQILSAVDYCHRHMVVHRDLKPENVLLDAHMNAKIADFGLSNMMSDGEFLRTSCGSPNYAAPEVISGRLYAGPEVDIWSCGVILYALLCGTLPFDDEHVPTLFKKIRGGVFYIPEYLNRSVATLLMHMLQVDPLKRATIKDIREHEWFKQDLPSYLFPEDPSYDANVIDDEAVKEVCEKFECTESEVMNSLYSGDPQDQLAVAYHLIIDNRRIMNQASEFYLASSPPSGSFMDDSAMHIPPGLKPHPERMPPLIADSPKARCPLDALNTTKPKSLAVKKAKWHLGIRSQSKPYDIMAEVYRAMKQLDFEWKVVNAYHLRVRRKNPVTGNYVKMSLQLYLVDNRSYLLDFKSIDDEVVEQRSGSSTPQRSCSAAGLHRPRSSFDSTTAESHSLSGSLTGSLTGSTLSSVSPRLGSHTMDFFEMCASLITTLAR
Sequence of Cyclin-dependent kinase 17 (Homo sapiens) (Q00537 whole entry, looked up): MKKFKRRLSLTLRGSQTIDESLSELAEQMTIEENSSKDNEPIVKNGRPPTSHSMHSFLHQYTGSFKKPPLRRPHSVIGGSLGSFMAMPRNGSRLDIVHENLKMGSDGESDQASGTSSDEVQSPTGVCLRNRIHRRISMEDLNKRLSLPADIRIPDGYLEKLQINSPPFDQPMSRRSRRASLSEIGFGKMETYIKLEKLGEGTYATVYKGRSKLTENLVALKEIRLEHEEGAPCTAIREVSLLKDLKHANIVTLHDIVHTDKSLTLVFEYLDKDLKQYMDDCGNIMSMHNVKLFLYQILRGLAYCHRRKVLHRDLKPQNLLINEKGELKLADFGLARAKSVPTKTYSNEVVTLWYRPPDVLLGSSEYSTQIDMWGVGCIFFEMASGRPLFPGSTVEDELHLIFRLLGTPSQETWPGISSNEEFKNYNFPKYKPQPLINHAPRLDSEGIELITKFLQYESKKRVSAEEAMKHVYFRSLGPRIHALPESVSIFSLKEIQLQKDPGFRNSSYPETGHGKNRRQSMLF
Sequence of Ribosomal protein S6 kinase alpha-3 (Homo sapiens) (P51812 whole entry, the tested form may be a part): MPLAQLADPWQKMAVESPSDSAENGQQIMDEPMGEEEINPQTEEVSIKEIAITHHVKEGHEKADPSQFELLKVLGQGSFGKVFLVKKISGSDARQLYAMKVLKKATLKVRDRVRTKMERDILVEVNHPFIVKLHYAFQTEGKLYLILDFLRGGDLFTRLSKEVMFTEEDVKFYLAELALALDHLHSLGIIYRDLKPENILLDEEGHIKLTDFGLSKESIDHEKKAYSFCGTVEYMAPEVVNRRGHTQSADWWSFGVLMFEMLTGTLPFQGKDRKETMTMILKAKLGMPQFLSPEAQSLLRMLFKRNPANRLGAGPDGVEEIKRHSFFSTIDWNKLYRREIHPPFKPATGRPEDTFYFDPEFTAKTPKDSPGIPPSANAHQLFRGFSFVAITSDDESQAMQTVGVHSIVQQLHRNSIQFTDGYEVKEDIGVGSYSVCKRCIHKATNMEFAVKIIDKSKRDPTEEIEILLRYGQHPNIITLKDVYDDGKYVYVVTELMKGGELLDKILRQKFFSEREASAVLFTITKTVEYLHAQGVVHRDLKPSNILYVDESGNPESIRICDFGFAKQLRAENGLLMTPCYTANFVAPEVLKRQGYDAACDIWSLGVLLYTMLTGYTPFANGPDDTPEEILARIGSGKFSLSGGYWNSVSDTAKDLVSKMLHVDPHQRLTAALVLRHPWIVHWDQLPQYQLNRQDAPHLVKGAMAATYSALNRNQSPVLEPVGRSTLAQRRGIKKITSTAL
Sequence of Cyclin-dependent kinase 9 (Homo sapiens) (P50750 whole entry): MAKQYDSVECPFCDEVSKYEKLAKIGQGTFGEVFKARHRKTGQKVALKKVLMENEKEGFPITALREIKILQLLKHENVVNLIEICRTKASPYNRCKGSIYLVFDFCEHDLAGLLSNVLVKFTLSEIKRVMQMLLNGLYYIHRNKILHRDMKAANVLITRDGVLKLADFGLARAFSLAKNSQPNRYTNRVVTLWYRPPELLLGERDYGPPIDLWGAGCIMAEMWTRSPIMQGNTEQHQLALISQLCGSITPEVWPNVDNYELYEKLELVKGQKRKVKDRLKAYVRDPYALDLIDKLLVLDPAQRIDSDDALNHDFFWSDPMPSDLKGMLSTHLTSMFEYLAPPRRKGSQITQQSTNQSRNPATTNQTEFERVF

For `CNc1cc(Oc2cc(C(=O)Nc3cc(N4CCN(C)CC4)cc(C(F)(F)F)c3)ccc2C)ncn1`, the inhibition is 1.9% in [1]; 22.4% in test [2]; 0.5% in [3]; -3.1% in [4]; 14.9% in [5].
Turning to `CCN1CCN(Cc2ccc(NC(=O)c3ccc(C)c(Oc4ccnc5[nH]ccc45)c3)cc2C(F)(F)F)CC1`, the inhibition is -7.1% in test [6], 1.2% in test [8] and -3.4% in test [9]. For the same compound, in test [7], the inhibition entry is “inactive”. Further, the inhibition at 10 µM in test [10] is 2.8%.

Broadly, the inhibition is the relative decrease from the control value, in per cent.
